Data from patent US20240116985A1, “STAPLED PEPTIDES AND METHODS THEREOF” (priority 2020, published 2024).
Like-named read-outs stand apart in the source and are kept apart here.

Experiments:
[1] = target: T1, full-length beta-Catenin (Uniprot ID P35222) (Homo sapiens, UniProt P35222); assay: Fluorescence polarization IC50 (beta-catenin / 5FAM-TCF4 10-53 competition); assay type: binding; details: fluorescence polarization; read-out: beta-Catenin FP IC50
T1 construct: 10 nM full-length beta-Catenin (Uniprot ID P35222)
T1 sequence (P35222 1-781): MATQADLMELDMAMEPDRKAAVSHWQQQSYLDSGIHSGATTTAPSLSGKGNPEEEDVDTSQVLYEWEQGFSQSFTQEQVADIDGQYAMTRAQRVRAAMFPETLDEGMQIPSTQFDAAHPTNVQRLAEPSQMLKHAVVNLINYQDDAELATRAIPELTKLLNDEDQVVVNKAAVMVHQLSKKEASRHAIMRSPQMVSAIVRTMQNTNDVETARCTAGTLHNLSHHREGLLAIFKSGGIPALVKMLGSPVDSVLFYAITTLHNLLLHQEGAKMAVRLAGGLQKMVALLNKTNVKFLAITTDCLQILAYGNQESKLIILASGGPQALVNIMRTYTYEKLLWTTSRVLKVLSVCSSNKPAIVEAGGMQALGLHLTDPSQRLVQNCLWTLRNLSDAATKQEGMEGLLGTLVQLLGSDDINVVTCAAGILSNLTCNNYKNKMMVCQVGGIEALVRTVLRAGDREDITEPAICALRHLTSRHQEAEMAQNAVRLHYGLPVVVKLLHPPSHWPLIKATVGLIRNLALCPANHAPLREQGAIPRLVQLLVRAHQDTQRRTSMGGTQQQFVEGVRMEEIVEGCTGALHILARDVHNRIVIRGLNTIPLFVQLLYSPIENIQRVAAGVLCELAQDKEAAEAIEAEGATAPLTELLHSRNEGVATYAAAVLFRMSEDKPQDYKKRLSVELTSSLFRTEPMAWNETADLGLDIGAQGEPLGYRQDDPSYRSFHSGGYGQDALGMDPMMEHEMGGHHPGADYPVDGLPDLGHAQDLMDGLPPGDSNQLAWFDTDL

[2] = target: T2, beta-catenin/TCF4 engagement (Homo sapiens, UniProt P35222); assay: Nano-BRET target engagement assay (B-cat-Halo & TCF4-Luc in HEK293 cells); assay type: cell-based; details: read-out: NanoBRET Abs IC50
T2 construct: expressed in transfected cells; host or cells: HEK293
T2 sequence (P35222 1-781): T1 sequence (P35222 1-781)

SMILES | IC50 [1] [nM] | IC50 [2] [nM] | IC50 ([2]; absolute IC50) [nM]
CC(=O)N1CCC[C@]12CC=CCCCC1(CCCC=CCCCOC(=O)N3CC[C@@](C(=O)N[C@@H](Cc4ccsc4)C(=O)N[C@@H](Cc4csc5ccccc45)C(=O)N[C@@H](CCC(N)=O)C(N)=O)(C3)NC(=O)[C@H](CC(C)C)NC(=O)[C@H](Cc3ccccc3)NC(=O)[C@H](C)NC(=O)[C@H](C)NC(=O)[C@H](CNc3ccc(N)cc3C(=O)O)NC(=O)[C@H](CC(=O)O)NC1=O)NC(=O)[C@H](CC(C)(C)C)NC(=O)[C@H](CC(=O)O)NC2=O (stereo partly drawn) [I-2087, Ac-PL3-Asp-Npg-B5-Asp-[2COOH4NH2Ph]Dap-Ala-Ala-Phe-Leu-PyrS2-3Thi-BztA-Gln-NH2] | 26 | 6500 | –
CC(=O)N1CCC[C@]12CC=CCCCC1(CCCC=CCCCOC(=O)N3CC[C@@](C(=O)N[C@@H](Cc4ccsc4)C(=O)N[C@@H](Cc4csc5ccccc45)C(=O)N[C@@H](CCC(N)=O)C(N)=O)(C3)NC(=O)[C@H](CC(C)C)NC(=O)[C@H](Cc3ccccc3)NC(=O)[C@H](CCCCNC(=O)COCCOCCNC(=O)C34CC5(C)CC(C)(CC(C)(C5)C3)C4)NC(=O)[C@H](C)NC(=O)[C@H](CC(=O)O)NC(=O)[C@H](CC(=O)O)NC1=O)NC(=O)[C@H](CC(C)(C)C)NC(=O)[C@H](CC(=O)O)NC2=O (stereo partly drawn) [I-1476, Ac-PL3-Asp-Npg-B5-Asp-Asp-Ala-[Me3AdamantC-PEG2]-Lys-Phe-Leu-PyrS2-3Thi-BztA-Gln-NH2] | 16 | – | > 20000
CC(=O)N1CCC[C@]12CC=CCCCC1(CCCC=CCCCOC(=O)N3CC[C@@](C(=O)N[C@@H](Cc4ccsc4)C(=O)N[C@@H](Cc4csc5ccccc45)C(=O)N[C@@H](CCC(N)=O)C(N)=O)(C3)NC(=O)[C@H](CC(C)C)NC(=O)[C@H](Cc3ccccc3)NC(=O)[C@H](C)NC(=O)[C@H](C)NC(=O)[C@H](CC(=O)O)NC(=O)[C@H](CC(=O)O)NC1=O)NC(=O)[C@H](CCCCNC(=O)C13CC4(C)CC(C)(CC(C)(C4)C1)C3)NC(=O)[C@H](CC(=O)O)NC2=O (stereo partly drawn) [I-1471, Ac-PL3-Asp-[Me3AdamantC]-Lys-B5-Asp-Asp-Ala-Ala-Phe-Leu-PyrS2-3Thi-BztA-Gln-NH2] | 34 | – | > 20000
CC(=O)N1CCC[C@]12CC=CCCCC1(CCCC=CCCCOC(=O)N3CC[C@@](C(=O)N[C@@H](Cc4ccsc4)C(=O)N[C@@H](Cc4csc5ccccc45)C(=O)N[C@@H](CCC(N)=O)C(N)=O)(C3)NC(=O)[C@H](CC(C)C)NC(=O)[C@H](Cc3ccccc3)NC(=O)[C@H](C)NC(=O)[C@H](C)NC(=O)[C@H](CCC(=O)S)NC(=O)[C@H](CC(=O)O)NC1=O)NC(=O)[C@H](CC(C)(C)C)NC(=O)[C@H](CC(=O)O)NC2=O (stereo partly drawn) [I-1949, Ac-PL3-Asp-Npg-B5-Asp-GluSH-Ala-Ala-Phe-Leu-PyrS2-3Thi-BztA-Gln-NH2] | 96 | 28500 | –
CCCC[C@@H]1NC(=O)[C@H](Cc2ccccc2)NC(=O)[C@H](C)NC(=O)[C@H](C)NC(=O)[C@H](Cc2cccc(C(=O)O)c2)NC(=O)[C@H](CC(=O)O)NC(=O)C2(CCCC=CCCCOC(=O)N3CC[C@@](C(=O)N[C@@H](Cc4ccsc4)C(=O)N[C@@H](Cc4csc5ccccc45)C(=O)N[C@@H](CCC(N)=O)C(N)=O)(C3)NC1=O)CCCC=CC[C@]1(CCCN1C(C)=O)C(=O)N[C@@H](CC(=O)O)C(=O)N[C@@H](CC(C)C)C(=O)N2 (stereo partly drawn) [I-1407, Ac-PL3-Asp-Leu-B5-Asp-3COOHF-Ala-Ala-Phe-nLeu-PyrS2-3Thi-BztA-Gln-NH2] | 5 | – | 4200
CC(=O)N1CCC[C@]12CC=CCCCC1(CCCC=CCCCOC(=O)N3CC[C@@](C(=O)N[C@@H](Cc4ccsc4)C(=O)N[C@@H](Cc4csc5ccccc45)C(=O)N[C@@H](CCC(N)=O)C(N)=O)(C3)NC(=O)[C@H](CC(N)=O)NC(=O)[C@H](Cc3ccccc3)NC(=O)[C@H](C)NC(=O)[C@H](C)NC(=O)[C@H](CCC(N)=O)NC(=O)[C@H](CC(N)=O)NC1=O)NC(=O)[C@H](CC(C)(C)C)NC(=O)[C@H](CC(=O)O)NC2=O (stereo partly drawn) [I-1567, Ac-PL3-Asp-Npg-B5-Asn-Gln-Ala-Ala-Phe-Asn-PyrS2-3Thi-BztA-Gln-NH2] | 182 | – | > 20000
